In brackets after ≈: the same amount, converted by molar mass.
System: B16 F1 mouse melanoma cells
Test: Melanogenesis inhibition: intracellular melanin in α-MSH/cAMP-induced B16F1 cells
Type: cell-based
Conditions: B16-F1, 216 h, melanin induced by α-MSH/cAMP, 9 days treatment, melanin extracted by 1N NaOH, absorbance 405 nm, read-out: IC50 (inhibition of melanin formation)
Experimental: The intracellular melanin in B16 F1 mouse melanoma cells treated with varying concentrations of the sample is extracted by 1N NaOH. The brown colored melanin thus extracted is estimated at 405 nm. This brown color intensity of the melanin is quenched in the presence of the inhibitor. B16F1 mouse melanoma cells are cultured for 24 hours in a 6 well microtiter plate at a seeding density of 5000 cells per well. Melanin production is induced by α-MSH/cAMP after which the cells are treated with varying non-cytotoxic concentrations of the sample over a period of 9 days with sample treatment at regular intervals of 3 days. The melanin is extracted by 1N NaOH and the absorbance read at 405 nm in a Microplate reader. The inhibitory effect of the sample is calculated based on the degree of inhibition of melanin formation. The results are expressed as IC50 values using Graph pad prism software. The percentage of inhibition of melanin is calculated as follows % Inhibition=C−T/C×100 Where, C-absorbance due to melanin in untreated cells; T-absorbance due to melanin in sample treated cells

SMILES	IC50
O=c1cc(CO)occ1O [Kojic acid]	100 µg/mL (≈ 704 µM)
COc1cc(/C=C/C(=O)N2CCC=CC2=O)cc(OC)c1OC [piperlongumine]	0.625 µg/mL (≈ 1.97 µM)

— US20130245075A1, “MELANOGENESIS INHIBITION-METHODS AND COMPOSITIONS THEREOF” (priority 2012, published 2013)
